Values of other authors, collected in patent US9937198B2, “Multi-functional composition and preparation method and application thereof” (Suzhou Sciscape Bio-Pharmaceutical Technology Co., Ltd., priority 2013, dated 2018).

Key:
[1] = test system: bees and other beneficial insects; details: in vivo; cited from earlier work
rats = details: cited from earlier work
[2] = pure validamycin A; cited from earlier work

For `OCC1=C[C@@H](N[C@H]2C[C@H](CO)[C@@H](O[C@H]3O[C@@H](CO)[C@H](O)[C@@H](O)[C@@H]3O)[C@H](O)[C@H]2O)[C@H](O)[C@@H](O)[C@@H]1O` [Validamycin A, validamycin A], the “toxicity to bees and other beneficial insects” value [1] is given as “no toxicity”, the “acute oral toxicity (LD50) in rats” value (rats) is given as “above 20 g/kg” and the solubility in water [2] is given as “soluble in water”.
